In patent publication US5612331A, “Tetrahydrocarbazole derivatives as 5-HT1-like agonists” (SmithKline Beecham PLC, priority 1992, dated 1997) one finds EC50 data, which are given here for twelve compounds.

Where a name gives a salt, the structure may show the parent alone.

For orientation: EC50 means the concentration needed to bring the measured effect to its halfway point.

The assay deals with T1, 5-HT1-like receptor (Oryctolagus cuniculus, UniProt P49144).
T1 construct: the basilar artery removed with the aid of a dissecting microscope; from tissue; host or cells: rabbit basilar artery ring segments, endothelium removed
T1 sequence (P49144 whole entry): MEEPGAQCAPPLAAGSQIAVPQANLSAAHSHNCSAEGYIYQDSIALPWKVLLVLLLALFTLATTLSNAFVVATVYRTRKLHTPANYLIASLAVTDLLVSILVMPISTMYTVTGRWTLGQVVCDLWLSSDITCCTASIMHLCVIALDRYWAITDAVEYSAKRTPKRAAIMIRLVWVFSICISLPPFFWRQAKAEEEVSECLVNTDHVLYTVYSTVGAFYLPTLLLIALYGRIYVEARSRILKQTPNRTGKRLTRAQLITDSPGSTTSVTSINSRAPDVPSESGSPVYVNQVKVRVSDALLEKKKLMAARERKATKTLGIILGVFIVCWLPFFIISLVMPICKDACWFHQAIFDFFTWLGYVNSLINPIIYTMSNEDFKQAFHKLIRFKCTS
The assay can be described thus: Rabbit isolated basilar artery, cumulative concentration-effect curves (isometric tension). The conditions noted are these: rabbit isolated basilar artery rings, endothelium removed; in presence of ascorbate, indomethacin, cocaine, ketanserin and prazosin. Type of assay: cell-based. As to the method: Experiments were performed in intracranial arteries from rabbit isolated basilar artery in a similar method to one described previously (Parsons and Whalley, 1989. Eur J Pharmacol 174, 189-196.).
In brief, rabbits were killed by overdose with anaesthetic (sodium pentobarbitone). The whole brain was quickly removed and immersed in ice cold modified Kreb's solution and the basilar artery removed with the aid of a dissecting microscope. The Krebs solution was of the following composition (mM) Na^+ (120); K^+ (5); Ca^2+ (2.25); Mg^2+ (0.5); Cl^- (98.5); SO4^2- (1); EDTA (0.04), equilibrated with 95% O2 /5% CO2. The endothelium was removed by a gentle rubbing of the lumen with a fine metal wire. Arteries were then cut into ring segments (ca 4-5 mm wide) and set up for recording of isometric tension in 50 ml tissue baths in modified Krebs solution with the additional supplement of (mM); […] (20); fumarate (10); pyruvate (5); L-glutamate (5) and glucose (10). The arteries were then placed under a resting force of 3-4 mN maintained at 37° C. and the solution bubbled with 95% O2 /5% CO2.
After tests for initial reactivity with 90 mM KCl depolarising solution and for lack of acetylcholine-induced relaxation of 5-HT ([…]) precontraction, cumulative concentration-effect curves ([…]) to 5-HT were constructed in the presence of ascorbate […], cocaine […], indomethacin […], ketanserin […] and prazosin […].
Following a 45-60 min wash period, cumulative concentration-effect curves to the test compounds or 5-HT (as a time match control) were constructed in the presence of ascorbate, indomethacin, cocaine, ketanserin and prazosin.
As to `COc1ccc(CCNC(=O)c2ccc3[nH]c4c(c3c2)CC(N)CC4)cc1` (stereo not drawn) [Example 8, 3-Amino-6-N-[2-(4-methoxyphenyl)ethyl]carboxamido-1,2,3,4-tetrahydrocarbazole oxalate salt], the EC50 was in the range of 90 to 4010 nM.

On to `NC1CCc2[nH]c3ccc(C(=O)NCCc4ccccc4)cc3c2C1` (stereo not drawn) [Example 3, 3-Amino-6-N-(2-phenylethyl)carboxamido-1,2,3,4-tetrahydrocarbazole], for which the 50% effective concentration (EC50) was in the range of 90 to 4010 nM.

Regarding `NC1CCc2[nH]c3ccc(C(=O)NCCc4ccc(S(N)(=O)=O)cc4)cc3c2C1` (stereo not drawn) [Example 9, 3-Amino-6-N-[2-(4-phenylsulphonamido)ethyl]carboxamido-1,2,3,4-tetrahydrocarbazole], the half-maximal effective concentration (EC50) is 90 to 4010 nM.

As for `COc1cccc(/C=C/CNC(=O)c2ccc3[nH]c4c(c3c2)CC(N)CC4)c1` (stereo not drawn) [Example 14, 3-Amino-6-[E-3-(3-methoxyphenyl)prop-2-enyl]carboxamido-1,2,3,4-tetrahydrocarbazole oxalate salt], the 50% effective concentration (EC50) lay in the range of 90 to 4010 nM.

For the compound `NC1CCc2[nH]c3ccc(C(=O)NC/C=C/c4ccccc4)cc3c2C1` (stereo not drawn) [Example 15, 3-Amino-6-(E-3-(phenylprop-2-enyl)carboxamido-1,2,3,4-tetrahydrocarbazole oxalate salt], the half-maximal effective concentration (EC50) lay within 90 to 4010 nM.

For the compound `COc1ccc(/C=C/CNC(=O)c2ccc3[nH]c4c(c3c2)CC(N)CC4)cc1` (stereo not drawn) [Example 13, 3-Amino-6-[E-3-(4-methoxyphenyl)prop-2-enyl]carboxamido-1,2,3,4-tetrahydrocarbazole oxalate salt], the concentration giving a half-maximal response (EC50) was 90 to 4010 nM.

Turning to `CS(=O)(=O)Nc1ccc(CCNC(=O)c2ccc3[nH]c4c(c3c2)CC(N)CC4)cc1` (stereo not drawn) [Example 7, 3-Amino-6-N-[2-(4-methylsulphonamidophenyl)ethyl]carboxamido-1,2,3,4-tetrahydrocarbazole oxalate salt], the half-maximal effective concentration (EC50) fell in the range of 90 to 4010 nM.

`NC1CCc2[nH]c3ccc(C(=O)NCCCc4ccccc4)cc3c2C1` (stereo not drawn) [Example 1, 3-Amino-6-N-(3-phenylpropyl)carboxamido-1,2,3,4-tetrahydrocarbazole oxalate salt]: the EC50 was in the range of 90 to 4010 nM.

Regarding `NC1CCc2[nH]c3ccc(C(=O)NCCc4ccc([N+](=O)[O-])cc4)cc3c2C1` (stereo not drawn) [Example 5, 3-Amino-6-N-[2-(4-nitrophenyl)ethyl]carboxamido-1,2,3,4-tetrahydrocarbazolefumarate salt], the EC50 lay within 90 to 4010 nM.

For the compound `Nc1ccc(CCNC(=O)c2ccc3[nH]c4c(c3c2)CC(N)CC4)cc1` (stereo not drawn) [Example 6, 3-Amino-6-N-[2-(4-aminophenyl)ethyl]carboxamido-1,2,3,4-tetrahydrocarbazoleoxalate salt], the 50% effective concentration (EC50) lay within 90 to 4010 nM.

In the case of `COc1ccc(CCCNC(=O)c2ccc3[nH]c4c(c3c2)CC(N)CC4)cc1` (stereo not drawn) [Example 17, 3-Amino-6-[3-(4-methoxyphenyl)propyl]carboxamido-1,2,3,4-tetrahydrocarbazole oxalate salt], the EC50 lay within 90 to 4010 nM.

As to `NC1CCc2[nH]c3ccc(C(=O)NC/C=C/c4cccc([N+](=O)[O-])c4)cc3c2C1` (stereo not drawn) [Example 18, 3-Amino-6-[E-3 (3-nitrophenyl)prop-2-enyl]carboxamido-1,2,3,4-tetrahydrocarbazole oxalate salt], the concentration for a half-maximal effect (EC50) is 90 to 4010 nM.
